Data set [1] is classed as in vitro ADME, rat (Wistar strain, male). As to conditions: rat skin; for F, AZT permeation rate: n = 3; for promotion of AZT permeation through the skin (in words): in vitro, oleic acid vs water, Azone and S-318 vs 10% oleic acid. Here is the method:
A. The abdominal skin of a rat (Wistar strain, male, 200 g) was removed after shaving and placed between the chambers of a diffusion cell comprising two chambers having an effective permeation area of 0.95 cm^2 and a capacity of 2.3 ml for each chamber. The chamber of the corneum side received an AZT solution to be tested and the other chamber received water. The cell was warmed to 37° C. while the permeation of the drug towards the opposite chamber was measured. The AZT solution contained […] (5 mg/ml) AZT either in water or an aqueous solution of 10% oleic acid. […] The results are plotted In FIG. 1. The permeation rate during the stable permeation state (Fss) was determined as follows from the slope of the plots between 10 and 24 hours:
B. In a manner similar to that described in A, further agents capable of promoting permeation of AZT were searched. The promotion rate by each of the tested agents was expressed in relative terms when the rate of 10% oleic acid is tentatively determined as 1.
C. In the similar manner as in A and B, the permeation of AZT as a function of its concentration (3.7 mM-112 mM) was studied. 112 mM (about 3%) is a preferred concentration of AZT for practical purposes in producing a percutaneous AZT composition. The combination of a) 3% Azone+20% MP or b) 5% S-318+10% OA+20% PG+10% MP was used as a permeation promoting agent.

A short description of data set [2]: In vivo study - plasma AZT level by percutaneous (oleic acid pretreated skin) and oral administration of AZT. Further details: species or system rat (Wistar strain, male). As to conditions: for concentration at 0.5 h / concentration at 1 h / concentration at 2 h / concentration at 4 h / concentration at 6 h / concentration at 8 h / concentration at 24 h: plasma. Here is the method:
Three male rates of Wistar strain weighing about 200 g was allotted to each group. The abdominal portion of the rat was shaven and pretreated with 10% oleic acid for 24 hours. Then a 1 ml aliquot of a solution containing 0.5% (18.7 mM) AZT and 10% oleic acid in water was applied over 4.9 cm^2 area of the skin by a glass cell secured on the body of the rat. AZT level in the plasma sampled at […], 2, 4, 6, 8 and 24 hours after the administration was determined by HPLC. A control group orally received 0.5 ml water containing 0.6 mg AZT.

The conditions of data set [3]: cited from earlier work.
Data set [4] can be described thus: In vivo study - percutaneous absorption of AZT without pretreatment with 10% oleic acid. Further details: species or system rat (Wistar strain, male). As to conditions: no pretreatment, rat. As to the method: In a manner similar to that described in Example 2, the possibility of percutaneous absorption of AZT without pretreatment with 10% oleic acid was studied.
As absorption promoting agents, a) an aqueous solution containing 3% Azone and 20% MP, and b) an aqueous solution containing 5% S-318, 10% OA, 20% PG and 10% MP were prepared. AZT was dissolved at 3.7 mM concentration in each of said absorption agents and 1 ml of the resulting solution was applied to the skin of rats in a similar manner as in Example 2.

In the next data set the test system is reverse transcriptases. To be noted: background statement; cited from earlier work.
[5] abbreviates: 3.7 mM (1 mg/ml) AZT, 3% Azone + 20% MP.
[6] abbreviates: 3.7 mM (1 mg/ml) AZT, 5% S-318 + 10% OA + 20% PG + 10% MP.
[7] abbreviates: 18.7 mM (5 mg/ml) AZT, 3% Azone + 20% MP.
Setting [8] is: 18.7 mM (5 mg/ml) AZT, 5% S-318 + 10% OA + 20% PG + 10% MP.
Setting [9] is: 56.2 mM (15 mg/ml) AZT, 3% Azone + 20% MP.
The mark [10] stands for this setting: 56.2 mM (15 mg/ml) AZT, 5% S-318 + 10% OA + 20% PG + 10% MP.
Where [11] appears, read: 112 mM (30 mg/ml) AZT, 3% Azone + 20% MP.
Where [12] appears, read: 112 mM (30 mg/ml) AZT, 5% S-318 + 10% OA + 20% PG + 10% MP.
The mark [13] stands for this setting: topical or ocular, percutaneous, 1 ml 0.5% AZT + 10% oleic acid, 4.9 cm^2, rat.
Setting [14] is: oral, 0.6 mg AZT in 0.5 ml water, rat.
The mark [15] stands for this setting: according to Klecker et al. 1987.

Like-named read-outs stand apart in the source and are kept apart here.

In the case of `Cc1cn([C@H]2C[C@H](N=[N+]=[N-])[C@@H](CO)O2)c(=O)[nH]c1=O` [AZT, 3'-azide-3'-deoxythymidine], in data set [1] (setting [5]), the relative promotion rate is given as 6.2 and the “F, AZT permeation rate” value amounted to 0.28 μmol/cm^2 /h. Further, in data set [1] (setting [6]), the relative promotion rate stood at 4.4 and the “F, AZT permeation rate” value is recorded as 0.20 μmol/cm^2 /h. In addition, in data set [1] (setting [7]), the relative promotion rate is on record as 16.4 and the “F, AZT permeation rate” value is on record as 0.74 μmol/cm^2 /h. Moreover, in data set [1] (setting [8]), the relative promotion rate is 14.0 and the “F, AZT permeation rate” value came to 0.63 μmol/cm^2 /h. Moreover, in data set [1] (setting [9]), the relative promotion rate is recorded as 49.3 and the “F, AZT permeation rate” value turned out to be 2.22 μmol/cm^2 /h. Also, in data set [1] (setting [10]), the relative promotion rate came to 53.6 and the “F, AZT permeation rate” value stood at 2.41 μmol/cm^2 /h. Also, in data set [1] (setting [11]), the relative promotion rate was determined as 71.6 and the “F, AZT permeation rate” value is 3.22 μmol/cm^2 /h. Besides, in data set [1] (setting [12]), the relative promotion rate is 108 and the “F, AZT permeation rate” value worked out at 4.85 μmol/cm^2 /h. The “permeation rate during the stable permeation state (Fss)” value in data set [1] (37° C, 18.7 mM (5 mg/ml) AZT in 10% oleic acid, slope between 10 and 24 hours) is 0.045 μmol/cm^2 /h. In addition, in data set [2] (applied to rat skin as a simple water solution (data not shown)), the “percutaneous absorption of AZT” value is reported as “not observed at all”. Moreover, the “percutaneous absorption of AZT, detection in plasma” value in data set [2] (in the presence of oleic acid, rat) is on record as “could be detected in the plasma over 24 hours”. Also, the “drug level in the plasma after oral administration” value in data set [2] (oral, 0.6 mg AZT, rat) is “undetectable at 6 hours after the administration”. For the same compound, in data set [2] (setting [13]), the concentration at 0.5 h was 200 nM, the concentration at 1 h turned out to be 600 nM, the concentration at 2 h amounted to 700 nM and the concentration at 4 h stood at 1500 nM. Moreover, in data set [2] (setting [13]), the concentration at 6 h is 1500 nM, the concentration at 8 h came out at 1500 nM and the concentration at 24 h was 4000 nM. Also, in data set [2] (setting [14]), the concentration at 0.5 h turned out to be 3100 nM, the concentration at 1 h was 2500 nM, the concentration at 2 h was determined as 500 nM and the concentration at 4 h amounted to 200 nM. In addition, in data set [2] (setting [14]), the concentration at 6 h is less than 100 nM, the concentration at 8 h was less than 100 nM and the concentration at 24 h was less than 100 nM. In data set [3] (setting [15]), the “clearance (Cltot)” value is 78 L/h and the “plasma AZT level required for AIDS treatment (Css)” value is 1000 nM. Also, the “maintenance of an adequate AZT level in blood” value in data set [3] (conventional oral administration, 5 mg/kg every 4 hours, Klecker et al. 1987) was “impossible to maintain an adequate AZT level in blood”. Further, in data set [4] (3.7 mM AZT with a) 3% Azone + 20% MP or b) 5% S-318 + 10% OA + 20% PG + 10% MP), the “AZT level in the plasma” value is recorded as “a high AZT level in the plasma was achieved over a period of 10 hours”. The “efficient penetration of AZT through the skin” value in data set [4] (3.7 mM AZT, promoting agent a) 3% Azone + 20% MP) is listed as “especially remarkable”. The “inhibition of reverse transcriptases” value in the data set with reverse transcriptases is reported as “effective inhibitor of reverse transcriptases”.

Regarding `CCCCCCCCCCCCN1CCCCCC1=O` [Azone, 1-dodecylazacycloheptane-2-one], the “promotion of AZT permeation through the skin (in words)” value in data set [1] is “greatly accelerated”.

As for `CCCCCCCC/C=C\CCCCCCCC(=O)O` [oleic acid], the “promotion of AZT permeation through the skin (in words)” value in data set [1] is on record as “promoted permeation of AZT through the skin”.

These data come from patent US5248674A, “Percutaneous administration of 3'-azide'-deoxythymidine” (Nelson-Sumisho Co., Ltd., priority 1989, dated 1993).
